The results in this text go back to patent publication US20020110808A1, “Toxicant-induced differential gene expression” (priority 2000, published 2002).

Assay [1] concerns HepG2 cells. Put plainly: Dot blot array expression assay. Conditions: 24 hr, two-fold threshold. The method, then: The quality of the PCR reactions was assessed by agarose gel electrophoresis. Human genomic DNA (Clontech) and PCR products were robotically dotted in 100 nl aliquots onto positively-charged nylon membranes using the BioDot instrument (Cartesian Technologies, Inc.). After uv-crosslinking, the membranes were rinsed in 2× SSC and allowed to air-dry. Prior to addition of labeled cDNA probes, membranes were washed in boiling 1% SDS, rinsed with 6× SSC, and incubated in 5 mL of 42° C. Microhyb solution (Research Genetics) for 2 hr. Ten minutes prior to addition of the probes, the Microhyb solution was replaced with an equal amount of fresh 42° C. Microhyb solution containing denatured human Cot-1 DNA (Gibco BRL) and poly(dA) primer (Research Genetics) (both at final concentrations of 1 ng/μl).
For each reverse transcription reaction, 2 μg of mRNA was incubated with oligo(dT) primer (200 ng/μl) at 70° C. for 10 minutes. Tubes were chilled and spun briefly. The following reagents (with the final concentrations in parentheses) were added: first strand buffer (1×), DTT (10 mM), dNTP mix (1 mM each of dATP, dGTP, dTTP), [α-^33P]dCTP (3.3 μCi/μl) and Superscript II Reverse Transcriptase (10 units/μL). The samples were kept at 37° C. for 1.5 hr. Unincorporated nucleotides were removed by spinning the reaction mixture through a G-50 column. […] Probe quality was assessed by electrophoresis on a 10% denaturing polyacrylamide minigel. Denatured probes were added directly to the Microhyb solution and hybridized overnight at 42° C. Membranes were washed twice under each of the following conditions: (1) 2× SSC/0.1% SDS at room temperature, 5 min; (2) 0.2× SSC/0.1% SDS at room temperature, 5 min; (3) 0.2× SSC/0.1% SDS at 42° C., 15 min, (4) 0.1× SSC/0.1% SDS at 68° C., 15 min. Membranes were then rinsed briefly in 2× SSC at room temperature, covered with Saran wrap, and exposed to storage phoshpor screens. After three days, screens were scanned using a Storm phosphorimager (Molecular Dynamics). Images were analyzed using ImageQuant software (Molecular Dynamics).
We employed a rapid dot blot assay as a secondary screen for gene expression changes. We tested each of the unique clones against each of the three treatments. […] For these clones, the dot blot assay functioned not as a confirmation assay but as an initial screen for differential expression. Dot blots were prepared by robotically arraying subclone-derived PCR products in quadruplicate onto positively charged nylon membranes. […] In general, each dot consisted of over 80 ng of PCR product, as estimated by inspection of the PCR reactions run on agarose gels. This high quantity of DNA ensured that saturation of spots, with consequent loss of quantitation, would not occur. Spots of genomic DNA were included on each filter to allow normalization between control and treated sample intensities.

For assay [2], the system named is HepG2 cells. Briefly: cDNA array (GF200) expression profiling. Format: cell-based, human. The method, then:
Cells were grown in DMEM/F12 medium with 10% fetal bovine serum in tissue culture flasks for 3 days following splitting, at which time they were at or near confluency. […] For each treated sample, an untreated control flask was set up with the same medium. Following the treatment period, mRNA was isolated by affinity purification on oligo(dT) cellulose resin using the Poly(A) Pure mRNA isolation kit from Ambion. RNA quality was assessed by agarose gel electrophoresis, and yields were determined by absorbance at 260 nm.
Radiolabeled cDNA for array hybridizations were prepared as follows. To a solution of 2 μg of RNA in 8 μl DEPC-treated water was added 2 μl of 1 μg/μl oligo(dT) (10-20 mer mixture, Research Genetics). After incubation for 10 min at 70° C., the solution was chilled on ice for 2 min, and then added to 6 μl of 5× first strand buffer (250 mM Tris-HCl (pH 8.3), 375 mM KCl, 15 mM MgCl2; Gibco-BRL), 1 μl of 0.1M DTT, 1.5 μl dNTP mix (20 mM each dATP, dGTP and dTTP), 10 μl of 10 mCi/ml [α-^33P]dCTP (1000 Ci/mmol, Amersham), and 1.5 μl of 200 U/μl reverse transcriptase (Superscript II, Gibco-BRL). Following a 90 min incubation at 37° C., cDNA targets were purified by passage through G-50 Sephadex spin columns (Pharmacia) or Bio-Spin 6 columns (BioRad).
GF200 cDNA arrays (Research Genetics) were washed in 0.5% boiling SDS for 5 min and prehybridized for 3 hrs at 42° C. in 5 ml MicroHyb solution (Research Genetics) containing 5 μl of 1 μg/ml poly(dA) (Research Genetics) and 5 μl of 1 μg/ml human Cot-I DNA (Gibco-BRL) that was denatured for 3 min at 100° C. prior to use. Labeled target nucleic acids, boiled for 3 min, were added directly, and hybridization was allowed to proceed for 16-18 hr at 42° C. in roller bottles in hybridization ovens. Arrays were washed twice in 2× SSC, 1% SDS at room temperature for 2 min, and then twice in 0.5× SSC, 1% SDS at 65° C. for 20 min. Arrays were exposed to storage phosphor screens for 3 days and scanned using a phosphorimager (Molecular Dynamics). Arrays were stripped for reuse by placing in boiling 0.5% SDS and then incubating for 1.5 hr with shaking at room temperature, allowing to solution to cool. After stripping, arrays were exposed to storage phosphor screens overnight to confirm loss of signal.
Spot intensities were determined using Pathways software (Research Genetics). Data from quadruplicate sets of hybridizations were normalized by local regression using NLR software (Tom Kepler, North Carolina State University). Cluster analysis was carried out using the Clustan Graphics software package from Clustan Limited (Edinburgh).

For `CC(=O)Nc1ccc(O)cc1` [acetaminophen], the “Number of 27 unconfirmed or non-matching clones showing an expression change” value in the assay on HepG2 cells [1] was found to be 7. In the assay with HepG2 cells [2] (1 to 24 hr time course, 20 mM acetaminophen, 16 mM caffeine, 100 mM thioacetamide), the “Number of genes with statistically significant (p<0.05) change in expression in three or more adjacent time points” value is on record as 258. For the same compound, the “LDH-A down-regulation on arrays” value with HepG2 cells [2] (24 hr, 20 mM acetaminophen, wash 0.5× SSC at 65° C.) was 11 fold. For the same compound, in the assay on HepG2 cells [2] (acetaminophen, 24-hr time point), the “Metallothionein-1G induction on arrays” value is 18 fold. The “TTF-1 interacting peptide 21 up-regulation on arrays” value with HepG2 cells [2] (acetaminophen, 12 hr) came out at 2.6 fold.
